Assay results as given in patent publication US8178119B2, “Method for the acaricidal finishing of textile materials” (Sanitized AG, priority 2004, dated 2012).

Legend:
Format in all cases: in vivo
house dust mites [1] = assay: Effect against house dust mites, method not stated (one of the two methods); settings: for cuts in the number of mites: without zinc pyrithione, at concentrations normally used for antimicrobial finishing, reduction to zero mites not quite achieved; for growth in the population of mites by a factor: control factor 2.6
Text: On polyurethane foams based on polyester polyol, 2000 ppm of zinc pyrithione allowed a growth in the population of mites by a factor of 1.6, which is only insignificantly less than the corresponding control sample at a factor of 2.6. In the case of plasticized PVC, even 3000 ppm of zinc pyrithione allowed a growth in the population of mites by a factor of 1.4, while the PVC control sample returned a growth of again by a factor of 2.6. Both values are insufficient for the protection of the finished articles against colonization by mites, but they do form the basis for enhancement of the protection without the complete effect having to be supplied by the other active, permethrin for example.
(§1) Testing of the effect against house dust mites was carried out in the experiments according to one of the two methods described hereinbelow: • 1. The textile sample is cut to a size of 8×8 cm and placed on a glass plate of the same size. About 50 house dust mites in the adult stage, which were counted under the microscope, were placed in the center of the sample. Other stages were likewise present of course but are not counted. Some food (see method 2) is added. A 5 mm thick rubber plate with a 30 mm diameter hole in the middle is placed on the sample. The hole is covered from the top with a filter paper, and a metal plate with a hole in the middle is placed on the filter paper such that the hole is congruently positioned above the hole in the rubber plate. The sample plates thus prepared are fixed with clips and are then incubated for 6 or 8 weeks in an incubator at saturated humidity at 25° C. After the period of 6 or 8 weeks, the living adult mites were again counted under the microscope. In this method, the change in the number of mites compared with the initial value is calculated. The test is carried out in duplicate. • 2. The AFNOR NF G 39-011 test method, as carried out for example by TEC Laboratory, F-64600 Anglet, again utilizes 50 adult house dust mites, Dermatophagoides pteronyssinus, per test sample, which come from a stock culture from INRA Bordeaux and were bred for several years at 76% humidity at 25° C. in the complete absence of insecticides. The mites were fed on a mixture of wheat germ and brown brewer's yeast. The test is carried out at 17 to 23° C. The test duration is six weeks, and the mites are counted after they were driven out by application of heat. The test is carried out in quadruplicate. The reduction in the number of mites after six weeks compared with a non-finished control sample is determined.

house dust mites [2] = assay: Method 1: live adult house dust mites counted on the textile sample after 6 or 8 weeks, change versus initial value
Description: as §1, with “The” for “Testing of the effect against house dust mites was carried out in the experiments according to one of the two methods described hereinbelow: • 1. The”, “After the period of 6 or 8 weeks, the living adult mites were again counted under the microscope.” left out, “[…],” for “F-64600 Anglet,”

[3] = test system: Dermatophagoides pteronyssinus; assay: Method 2: AFNOR NF G 39-011 test, reduction in number of mites after six weeks versus non-finished control; settings: cotton/polyester mattress ticking
Description: as §1, with “The” for “Testing of the effect against house dust mites was carried out in the experiments according to one of the two methods described hereinbelow: • 1. The”, “After the period of 6 or 8 weeks, the living adult mites were again counted under the microscope.” left out, “[…],” for “F-64600 Anglet,”

Molecule	cuts in the number of mites (house dust mites [1])	reduction in the number of live mites, average (house dust mites [2]; Example 11: 1000 ppm on cotton, 6 weeks, control growth rate 273%) [%]	reduction in the number of live mites (house dust mites [2]; Example 11: 1400 ppm on polyester furniture covering fabric, 6 weeks, control growth rate 273%) [%]	live mites on samples after the test (house dust mites [2]; Example 3: 1.0% of aqueous dispersion comprising 15% zinc pyrithione padded with 3% NUVA TTC or 4% NUVA HPU or 4% NUVA HPC onto cotton, polyester or polyamide, cured 150° C. 90 seconds)	live mites on samples after the test (house dust mites [2]; Example 6: 0.4% of aqueous formulation comprising 48% zinc pyrithione padded with wetting agent and nonionized surfactant onto woven cotton, dried 180° C. 1 minute)	mite inhibition rate (MIR) compared with the non-finished control fabric, average ([3]; Example 5: 1.0% of formulation comprising 15% zinc pyrithione with 3% to 5% acrylate copolymers) [%]	mites on samples after the test ([3]; Example 5: 1.2% of formulation comprising 15% zinc pyrithione with 3% to 5% acrylate copolymers)	mites on samples after the test ([3]; Example 5: 1.5% of formulation comprising 15% zinc pyrithione with 3% to 5% acrylate copolymers)	growth in the population of mites by a factor (house dust mites [1]; plasticized PVC, 3000 ppm of zinc pyrithione)	growth in the population of mites by a factor (house dust mites [1]; polyurethane foams based on polyester polyol, 2000 ppm of zinc pyrithione)
CCCCCCCCn1sccc1=O [2-n-octylisothiazolin-3-one]	fairly good cuts in the number of mites	–	–	–	–	–	–	–	–	–
Oc1cc(Cl)ccc1Oc1ccc(Cl)cc1Cl [triclosan]	fairly good cuts in the number of mites	57	38	–	–	–	–	–	–	–
zinc pyrithione	–	–	–	no longer any live mites	no longer any live mites	99.3	completely free of mites	completely free of mites	1.4	1.6
